# Target: T1, PD-1/PD-L1 (Homo sapiens, UniProt Q9NZQ7)
# T1 construct: TVMV protease site linker (C); made in house; host or cells: HEK293T cells
# Test: PD-1/PD-L1 Homogenous Time-Resolved Fluorescence (HTRF) binding assay
# Settings: PD-L1-His 10 nM, PD-1-Ig 20 nM
# Summary of the method: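 Time-resolved FRET read-out using Eu-cryptate anti-Ig (1 nM final) and APC anti-His (20 nM final). Tagged extracellular domains were used in BSA/Tween-20-supplemented dPBS, with compound pre-incubated 15 min with PD-L1-His (10 nM) before PD-1-Ig (20 nM) was added for 15 min. Other human pairs: PD-L2-His 5 nM with PD-1-Ig 20 nM; PD-L1-Ig 10 nM with CD80-His 100 nM.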
# T1 sequence (Q9NZQ7 18-239): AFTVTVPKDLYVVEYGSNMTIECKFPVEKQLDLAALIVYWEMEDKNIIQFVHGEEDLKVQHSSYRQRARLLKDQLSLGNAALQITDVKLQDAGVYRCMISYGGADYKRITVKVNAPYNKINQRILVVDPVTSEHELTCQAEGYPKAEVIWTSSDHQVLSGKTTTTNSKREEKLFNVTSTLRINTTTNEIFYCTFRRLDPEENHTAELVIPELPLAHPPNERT
row,SMILES,IC50 [nM]
1,"Cc1c(COc2cc(OCc3cncnc3)c(CNCc3cn[nH]c3)cc2Cl)cccc1-c1cccc(OCCCN2CC[C@@H](O)C2)c1C [Example 2051, (R)-1-(3-((3′-((4-((((1H-pyrazol-4-yl)methyl)amino)methyl)-2-chloro-5-(pyrimidin-5-ylmethoxy)phenoxy)methyl)-2,2′-dimethyl-[1,1′-biphenyl]-3-yl)oxy)propyl)pyrrolidin-3-ol]",2
2,"Cc1c(COc2cc(OCc3cncc(C#N)c3)c(CN(C)CC(C)c3nnn[nH]3)cc2Cl)cccc1-c1cccc(OCCCN2CC[C@@H](O)C2)c1C (stereo partly drawn) [Example 1006, 5-((2-(((2-(1H-Tetrazol-5-yl)propyl)(methyl)amino)methyl)-4-chloro-5-((3′-(3-((R)-3-hydroxypyrrolidin-1-yl)propoxy)-2,2′-dimethyl-[1,1′-biphenyl]-3-yl)methoxy)phenoxy)methyl)nicotinonitrile]",2.7
3,"Cc1c(COc2cc(OCc3cncc(C#N)c3)c(CN(C)Cc3ncc[nH]3)cc2Cl)cccc1-c1cccc(OCCCN2CC[C@@H](O)C2)c1C [Example 2008, (R)-5-((2-((((1H-imidazol-2-yl)methyl)(methyl)amino)methyl)-4-chloro-5-((3′-(3-(3-hydroxypyrrolidin-1-yl)propoxy)-2,2′-dimethyl-[1,1′-biphenyl]-3-yl)methoxy)phenoxy)methyl)nicotinonitrile]",0.5
4,"Cc1c(COc2cc(OCc3cncc(C#N)c3)c(CN(C)Cc3cncs3)cc2Cl)cccc1-c1cccc(OC2CCN(C)CC2)c1Cl [Example 2048, 5-((4-chloro-5-((2′-chloro-2-methyl-3′-((1-methylpiperidin-4-yl)oxy)-[1,1′-biphenyl]-3-yl)methoxy)-2-((methyl(thiazol-5-ylmethyl)amino)methyl)phenoxy)methyl)nicotinonitrile]",355
5,"Cc1c(COc2cc(OCc3cncc(C#N)c3)c(CN(C)C(C)c3nnn[nH]3)cc2Cl)cccc1-c1cccc(OCCCNC[C@H](O)CO)c1Cl (stereo partly drawn) [Example 1034, 5-((2-(((1-(1H-Tetrazol-5-yl)ethyl)(methyl)amino)methyl)-4-chloro-5-((2′-chloro-3′-(3-(((S)-2,3-dihydroxypropyl)amino)propoxy)-2-methyl-[1,1′-biphenyl]-3-yl)methoxy)-phenoxy)methyl)-nicotinonitrile]",0.4
6,"Cc1c(COc2cc(OCc3cncc(C#N)c3)c(CN(C)CC(C)c3nnn[nH]3)cc2Cl)cccc1-c1cccc(OCCCNC[C@H](O)CO)c1Cl (stereo partly drawn) [Example 1035, 5-((2-(((2-(1H-Tetrazol-5-yl)propyl)(methyl)amino)methyl)-4-chloro-5-((2′-chloro-3′-(3-(((S)-2,3-dihydroxypropyl)amino)propoxy)-2-methyl-[1,1′-biphenyl]-3-yl)methoxy)-phenoxy)methyl)nicotinonitrile]",1.3
7,"Cc1c(COc2cc(OCc3cncc(C#N)c3)c(CN3CCCCC3c3cc[nH]n3)cc2Cl)cccc1-c1cccc(OCC2CCCN(C)C2)c1Cl (stereo not shown) [Example 1021, 5-((2-((2-(1H-Pyrazol-3-yl)piperidin-1-yl)methyl)-4-chloro-5-((2′-chloro-2-methyl-3′-((1-methyl-piperidin-3-yl)methoxy)-[1,1′-biphenyl]-3-yl)methoxy)phenoxy)methyl)-nicotinonitrile]",1.8
8,"Cc1c(COc2cc(OCc3cncc(C#N)c3)c(CNCc3ccc4c(N)n[nH]c4c3)cc2Cl)cccc1-c1cccc(OCC2CCCN(C)C2)c1Cl (stereo not shown) [Example 2610, 5-((2-((((3-amino-1H-indazol-6-yl)methyl)amino)methyl)-4-chloro-5-((2′-chloro-2-methyl-3′-((1-methylpiperidin-3-yl)methoxy)-[1,1′-biphenyl]-3-yl)methoxy)phenoxy)methyl)nicotinonitrile]",0.8
9,"Cc1c(COc2cc(OCc3cncc(C#N)c3)c(CN(C)Cc3cc(C4CC4)on3)cc2Cl)cccc1-c1cccc(OCCCN2CC[C@@H](O)C2)c1C [Example 2552, (R)-5-((4-chloro-2-((((5-cyclopropylisoxazol-3-yl)methyl)(methyl)amino)methyl)-5-((3′-(3-(3-hydroxypyrrolidin-1-yl)propoxy)-2,2′-dimethyl-[1,1′-biphenyl]-3-yl)methoxy)phenoxy)methyl)nicotinonitrile]",7.3
10,"Cc1c(COc2cc(OCc3cncc(C#N)c3)c(CNCc3cccnn3)cc2Cl)cccc1-c1cccc(OCc2cncnc2)c1Cl [Example 2061, 5-((4-chloro-5-((2′-chloro-2-methyl-3′-(pyrimidin-5-ylmethoxy)-[1,1′-biphenyl]-3-yl)methoxy)-2-(((pyridazin-3-ylmethyl)amino)methyl)phenoxy)methyl)nicotinonitrile]",16.9
11,"Cc1ncsc1CCNCc1cc(Cl)c(OCc2cccc(-c3cccc(OCCCN4CC[C@@H](O)C4)c3C)c2C)cc1OCc1cncc(C#N)c1 [Example 2504, (R)-5-((4-chloro-5-((3′-(3-(3-hydroxypyrrolidin-1-yl)propoxy)-2,2′-dimethyl-[1,1′-biphenyl]-3-yl)methoxy)-2-(((2-(4-methylthiazol-5-yl)ethyl)amino)methyl)phenoxy)methyl)nicotinonitrile]",1.8
12,"Cc1noc(C)c1CNCc1cc(Cl)c(OCc2cccc(-c3cccc(OCC4CCCN(C)C4)c3Cl)c2C)cc1OCc1cncc(C#N)c1 (stereo not shown) [Example 2597, 5-((4-chloro-5-((2′-chloro-2-methyl-3′-((1-methylpiperidin-3-yl)methoxy)-[1,1′-biphenyl]-3-yl)methoxy)-2-((((3,5-dimethylisoxazol-4-yl)methyl)amino)methyl)phenoxy)methyl)nicotinonitrile]",2.9
13,"CC(=O)NC1CCN(CCCOc2cccc(-c3cccc(COc4cc(OCc5cncc(C#N)c5)c(CN5CCC(c6cnn(C)c6)C5)cc4Cl)c3C)c2C)CC1 (stereo not shown) [Example 1052, N-(1-(3-((3′-((2-Chloro-5-((5-cyanopyridin-3-yl)methoxy)-4-((3-(1-methyl-1H-pyrazol-4-yl)pyrrolidin-1-yl)methyl)phenoxy)methyl)-2,2′-dimethyl-[1,1′-biphenyl]-3-yl)oxy)-propyl)piperidin-4-yl)acetamide]",3.4
14,"Cc1c(COc2cc(OCc3cncc(C#N)c3)c(CNCc3ncc[nH]3)cc2Cl)cccc1-c1cccc(OCCCN2CCC(O)(CO)CC2)c1Cl [Example 2011, 5-((2-((((1H-imidazol-2-yl)methyl)amino)methyl)-4-chloro-5-((2′-chloro-3′-(3-(4-hydroxy-4-(hydroxymethyl)piperidin-1-yl)propoxy)-2-methyl-[1,1′-biphenyl]-3-yl)methoxy)phenoxy)methyl)nicotinonitrile]",2.8
15,"Cc1c(COc2cc(OCc3cncc(C#N)c3)c(CN(C)Cc3cncnc3)cc2Cl)cccc1-c1cccc(OCCCN2CC[C@@H](O)C2)c1C [Example 2032, (R)-5-((4-chloro-5-((3′-(3-(3-hydroxypyrrolidin-1-yl)propoxy)-2,2′-dimethyl-[1,1′-biphenyl]-3-yl)methoxy)-2-((methyl(pyrimidin-5-ylmethyl)amino)methyl)phenoxy)methyl)nicotinonitrile]",2.5
16,"Cc1[nH]cnc1COc1cc(OCc2cccc(-c3cccc(OCCCN4CC[C@@H](O)C4)c3C)c2C)c(Cl)cc1CNCc1ccnc(C#N)n1 [Example 2042, (R)-4-(((5-chloro-4-((3′-(3-(3-hydroxypyrrolidin-1-yl)propoxy)-2,2′-dimethyl-[1,1′-biphenyl]-3-yl)methoxy)-2-((5-methyl-1H-imidazol-4-yl)methoxy)benzyl)amino)methyl)pyrimidine-2-carbonitrile]",89.5

# Source: patent US20240124417A1, “COMPOUNDS USEFUL AS IMMUNOMODULATORS” (Bristol-Myers Squibb Company, priority 2019, published 2024)
